Assay results taken from US20220389007A1, “INHIBITORS OF HUMAN IMMUNODEFICIENCY VIRUS REPLICATION” (VIIV HEALTHCARE UK (No. 5) LIMITED, priority 2019, published 2022).

Assays:
[1] = Compound cytotoxicity, XTT-based colorimetric assay; assay type: cell-based; settings: human; uninfected MT2 cells, day 4, XTT assay
Experimental: Compound cytotoxicity and the corresponding CC50 values were determined using the same protocol as described in the antiviral assay except that uninfected cells were used. Cytotoxicity was assessed on day 4 in uninfected MT2 cells by using a XTT (2,3-bis[2-Methoxy-4-nitro-5-sulfophenyl]-2H-tetrazolium-5-carboxyanilide inner salt)-based colorimetric assay (Sigma-Aldrich, St Louis, Mo.).

recombinant NL4-3 virus = test: HIV cell culture assay (antiviral activity, luciferase readout); assay type: cell-based; settings: Human immunodeficiency virus 1, NL43, MT2, MT-2 cells infected for 4-5 days with recombinant NL4-3 virus carrying Renilla luciferase
Experimental: HIV cell culture assay—MT-2 cells, 293T cells and the proviral DNA clone of NL4-3 virus were obtained from the NIH AIDS Research and Reference Reagent Program. MT-2 cells were propagated in RPMI 1640 media supplemented with 10% heat inactivated fetal bovine serum (FBS), […]. The 293T cells were propagated in DMEM media supplemented with 10% heat inactivated FBS, […]. A recombinant NL4-3 proviral clone, in which a section of the nef gene was replaced with the Renilla luciferase gene, was used to make the reference virus used in these studies. The recombinant virus was prepared through transfection of the recombinant NL4-3 proviral clone into 293T cells using Transit-293 Transfection Reagent from Mirus Bio LLC (Madison, WI). Supernatent was harvested after 2-3 days and the amount of virus present was titered in MT-2 cells using luciferase enzyme activity as a marker by measuring luciferase enzyme activity. Luciferase was quantitated using the EnduRen Live Cell Substrate from Promega (Madison, Wis.). Antiviral activities of compounds toward the recombinant virus were quantified by measuring luciferase activity in MT-2 cells infected for 4-5 days with the recombinant virus in the presence of serial dilutions of the compound.
The 50% effective concentration (EC50) was calculated by using the exponential form of the median effect equation where (Fa)=1/[1+(ED50/drug conc.)m] (Johnson VA, Byington RT. Infectivity Assay. In Techniques in HIV Research. ed. Aldovini A, Walker BD. 71-76. New York: Stockton Press. 1990). The 50% inhibitory concentration (EC50) was calculated by using the exponential form of the median effect equation where percent inhibition=1/[1+(EC50/drug concentration)m], where m is a parameter that reflects the slope of the concentration-response curve.

SMILES | CC50 at 4 day [1] | EC50 (recombinant NL4-3 virus)
Cn1nc(NS(C)(=O)=O)c2c(Cl)ccc(-n3c([C@H](Cc4cc(F)cc(F)c4)NC(=O)Cn4nc(C(F)F)c5c4C(F)(F)[C@@H]4C[C@H]54)nc4nc(-c5cccc(C(F)(F)F)n5)ccc4c3=O)c21 (atropisomer, axis not shown; (P)) [Example 9, N-((S)-1-((3P)-3-(4-chloro-1-methyl-3-(methylsulfonamido)-1H-indazol-7-yl)-4-oxo-7-(6-(trifluoromethyl)pyridin-2-yl)-3,4-dihydropyrido[2,3-d]pyrimidin-2-yl)-2-(3,5-difluorophenyl)ethyl)-2-((3bS,4aR)-3-(difluoromethyl)-5,5-difluoro-3b,4,4a,5-tetrahydro-1H-cyclopropa[3,4]cyclopenta[1,2-c]pyrazol-1-yl)acetamide] | > 100000 pM | 65 pM
Cc1ccnc(-c2ccc3c(=O)n(-c4ccc(Cl)c5c(NS(C)(=O)=O)nn(C)c45)c([C@H](Cc4cc(F)cc(F)c4)NC(=O)Cn4nc(C(F)F)c5c4C(F)(F)[C@@H]4C[C@H]54)nc3n2)c1 (atropisomer, axis not shown; (P)) [Example 49, N-((S)-1-((3P)-3-(4-chloro-1-methyl-3-(methylsulfonamido)-1H-indazol-7-yl)-7-(4-methylpyridin-2-yl)-4-oxo-3,4-dihydropyrido[2,3-d]pyrimidin-2-yl)-2-(3,5-difluorophenyl)ethyl)-2-((3bS,4aR)-3-(difluoromethyl)-5,5-difluoro-3b,4,4a,5-tetrahydro-1H-cyclopropa[3,4]cyclopenta[1,2-c]pyrazol-1-yl)acetamide] | > 100000 pM | 18 pM
Cn1nc(NS(C)(=O)=O)c2c(Cl)ccc(-n3c([C@H](Cc4cc(F)cc(F)c4)NC(=O)Cn4nc(C(F)F)c5c4C(F)(F)[C@@H]4C[C@H]54)nc4nc(-c5ccc6ncsc6c5)ccc4c3=O)c21 (atropisomer, axis not shown; (P)) [Example 71, N-((S)-1-(7-(benzo[d]thiazol-6-yl)-(3P)-3-(4-chloro-1-methyl-3-(methylsulfonamido)-1H-indazol-7-yl)-4-oxo-3,4-dihydropyrido[2,3-d]pyrimidin-2-yl)-2-(3,5-difluorophenyl)ethyl)-2-((3bS,4aR)-3-(difluoromethyl)-5,5-difluoro-3b,4,4a,5-tetrahydro-1H-cyclopropa[3,4]cyclopenta[1,2-c]pyrazol-1-yl)acetamide] | > 100000 pM | 97 pM
Cn1nc(NS(C)(=O)=O)c2c(Cl)ccc(-n3c([C@H](Cc4cc(F)cc(F)c4)NC(=O)Cn4nc(C(F)F)c5c4C(F)(F)[C@@H]4C[C@H]54)nc4nc(-c5cc(C(F)(F)F)ccn5)ccc4c3=O)c21 (atropisomer, axis not shown; (P)) [Example 16, N-((S)-1-((3P)-3-(4-chloro-1-methyl-3-(methylsulfonamido)-1H-indazol-7-yl)-4-oxo-7-(4-(trifluoromethyl)pyridin-2-yl)-3,4-dihydropyrido[2,3-d]pyrimidin-2-yl)-2-(3,5-difluorophenyl)ethyl)-2-((3bS,4aR)-3-(difluoromethyl)-5,5-difluoro-3b,4,4a,5-tetrahydro-1H-cyclopropa[3,4]cyclopenta[1,2-c]pyrazol-1-yl)acetamide] | > 100000 pM | 52 pM
Cn1nc(NS(C)(=O)=O)c2c(Cl)ccc(-n3c([C@H](Cc4cc(F)cc(F)c4)NC(=O)Cn4nc(C(F)F)c5c4C(F)(F)[C@@H]4C[C@H]54)nc4nc(-c5ccn(CCCF)n5)ccc4c3=O)c21 (atropisomer, axis not shown; (P)) [Example 87, N-((S)-1-((3P)-3-(4-chloro-1-methyl-3-(methylsulfonamido)-1H-indazol-7-yl)-7-(1-(3-fluoropropyl)-1H-pyrazol-3-yl)-4-oxo-3,4-dihydropyrido[2,3-d]pyrimidin-2-yl)-2-(3,5-difluorophenyl)ethyl)-2-((3bS,4aR)-3-(difluoromethyl)-5,5-difluoro-3b,4,4a,5-tetrahydro-1H-cyclopropa[3,4]cyclopenta[1,2-c]pyrazol-1-yl)acetamide] | > 100000 pM | 36 pM
Cn1nc(NS(C)(=O)=O)c2c(Cl)ccc(-n3c([C@H](Cc4cc(F)cc(F)c4)NC(=O)Cn4nc(C(F)F)c5c4C(F)(F)[C@@H]4C[C@H]54)nc4nc(-c5cccc(OC(F)F)c5)ccc4c3=O)c21 (atropisomer, axis not shown; (P)) [Example 20, N-((S)-1-((3P)-3-(4-chloro-1-methyl-3-(methylsulfonamido)-1H-indazol-7-yl)-7-(3-(difluoromethoxy)phenyl)-4-oxo-3,4-dihydropyrido[2,3-d]pyrimidin-2-yl)-2-(3,5-difluorophenyl)ethyl)-2-((3bS,4aR)-3-(difluoromethyl)-5,5-difluoro-3b,4,4a,5-tetrahydro-1H-cyclopropa[3,4]cyclopenta[1,2-c]pyrazol-1-yl)acetamide] | > 100000 pM | 200 pM
Cn1nc(NS(C)(=O)=O)c2c(Cl)ccc(-n3c([C@H](Cc4cc(F)cc(F)c4)NC(=O)Cn4nc(C(F)F)c5c4C(F)(F)[C@@H]4C[C@H]54)nc4nc(-c5ncncc5C(F)(F)F)ccc4c3=O)c21 (atropisomer, axis not shown; (P)) [Example 17, N-((S)-1-((3P)-3-(4-chloro-1-methyl-3-(methylsulfonamido)-1H-indazol-7-yl)-4-oxo-7-(5-(trifluoromethyl)pyrimidin-4-yl)-3,4-dihydropyrido[2,3-d]pyrimidin-2-yl)-2-(3,5-difluorophenyl)ethyl)-2-((3bS,4aR)-3-(difluoromethyl)-5,5-difluoro-3b,4,4a,5-tetrahydro-1H-cyclopropa[3,4]cyclopenta[1,2-c]pyrazol-1-yl)acetamide] | > 100000 pM | 38 pM
Cn1nc(NS(C)(=O)=O)c2c(Cl)ccc(-n3c([C@H](Cc4cc(F)cc(F)c4)NC(=O)Cn4nc(C(F)F)c5c4C(F)(F)[C@@H]4C[C@H]54)nc4nc(-c5ccc6scnc6c5)ccc4c3=O)c21 (atropisomer, axis not shown; (P)) [Example 72, N-((S)-1-(7-(benzo[d]thiazol-5-yl)-(3P)-3-(4-chloro-1-methyl-3-(methylsulfonamido)-1H-indazol-7-yl)-4-oxo-3,4-dihydropyrido[2,3-d]pyrimidin-2-yl)-2-(3,5-difluorophenyl)ethyl)-2-((3bS,4aR)-3-(difluoromethyl)-5,5-difluoro-3b,4,4a,5-tetrahydro-1H-cyclopropa[3,4]cyclopenta[1,2-c]pyrazol-1-yl)acetamide] | > 100000 pM | 110 pM
Cn1nc(NS(C)(=O)=O)c2c(Cl)ccc(-n3c([C@H](Cc4cc(F)cc(F)c4)NC(=O)Cn4nc(C(F)F)c5c4C(F)(F)[C@@H]4C[C@H]54)nc4nc(-c5ccnnc5)ccc4c3=O)c21 (atropisomer, axis not shown; (P)) [Example 33, N-((S)-1-((3P)-3-(4-chloro-1-methyl-3-(methylsulfonamido)-1H-indazol-7-yl)-4-oxo-7-(pyridazin-4-yl)-3,4-dihydropyrido[2,3-d]pyrimidin-2-yl)-2-(3,5-difluorophenyl)ethyl)-2-((3bS,4aR)-3-(difluoromethyl)-5,5-difluoro-3b,4,4a,5-tetrahydro-1H-cyclopropa[3,4]cyclopenta[1,2-c]pyrazol-1-yl)acetamide] | > 100000 pM | 450 pM
Cn1nc(NS(C)(=O)=O)c2c(Cl)ccc(-n3c([C@H](Cc4cc(F)cc(F)c4)NC(=O)Cn4nc(C(F)F)c5c4C(F)(F)[C@@H]4C[C@H]54)nc4nc(-c5ccn(CCCC(F)(F)F)n5)ccc4c3=O)c21 (atropisomer, axis not shown; (P)) [Example 85, N-((S)-1-((3P)-3-(4-chloro-1-methyl-3-(methylsulfonamido)-1H-indazol-7-yl)-4-oxo-7-(1-(4,4,4-trifluorobutyl)-1H-pyrazol-3-yl)-3,4-dihydropyrido[2,3-d]pyrimidin-2-yl)-2-(3,5-difluorophenyl)ethyl)-2-((3bS,4aR)-3-(difluoromethyl)-5,5-difluoro-3b,4,4a,5-tetrahydro-1H-cyclopropa[3,4]cyclopenta[1,2-c]pyrazol-1-yl)acetamide] | > 100000 pM | 96 pM
